Laboratory results taken from patent publication US12552783B2, “Modulators of proteolysis and associated methods of use” (Arvinas Operations, Inc., priority 2018, dated 2026).

Legend:
Assay type in all cases: cell-based
[1] = target: T1, KRas (Homo sapiens, UniProt P01116, G12C); assay: KRas degradation in H2030 cells by Western blot (data of Table 5); set-up: host or cells: NCI-H2030; details: H2030 cells serum starved 24 hours, KRas immunoblot; for H2030 Degradation at 0.3 uM: treated 24 hours with 0.3 uM; for H2030 Degradation at 1 uM: treated 24 hours with 1 uM; for H2030 Degradation at 3 uM: treated 24 hours with 3 uM
Experimental: Cell Lines, Antibodies, and Reagents. NCI-H2030 (CRL-5914) and SW1573 (CRL-2170) cells were purchased from ATCC. Both cell lines are homozygous for the G12C mutation in KRas. NCI-H2030 cells were cultured in RPMI-1640 medium containing 1% penicillin-streptomycin and 10% fetal bovine serum (FBS). SW1573 cells were cultured in DMEM containing 1% penicillin-streptomycin and 10% FBS. The KRas detection antibody (Cat. No. LS-C175665) was purchased from LifeSpan Biosciences and was used at a dilution of 1:2000. GAPDH was detected using an antibody purchased from Cell Signaling Technology (Cat. No. 5174) and was diluted 1:3000. Secondary anti-mouse and anti-rabbit detection antibodies were purchased from Cell Signaling Technology (Cat. Nos. 7076 and 7074, respectively).
Compound Treatment and Western Blotting of the Data of Table 5. H2030 cells in 12-well plates were serum starved for 24 hours, and then treated with 0.3 uM, 1 uM, and 3 uM of the indicated bifunctional compound, for 24 hours. Cells were lysed in a Cell Signaling Technology Cell Lysis Buffer (Cat. No. #9803) supplemented with protease inhibitors, and proteins were separated by SDS-PAGE. KRas was detected by immunoblotting using the LSBio antibody (Cat. No. LS-C175665).
DC50 is the half-maximal degradation concentration—i.e., the concentration at which 50% degradation is observed. DMax is the maximum degradation efficacy is achieved—i.e., the maximal degradation observed) degradation data.

[2] = target: T1, KRas; assay: KRas degradation in SW1573 cells by Western blot, normalized to GAPDH (data of Table 14)
How it was run: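 SW1573 cells, homozygous for the KRas G12C mutation and maintained in DMEM with 10% FBS and 1% penicillin-streptomycin, were seeded in 12-well plates, allowed to attach overnight at 37° C. under 5% CO2, then serum-starved for 24 hours before compound exposure. KRas levels were measured by Western blot, normalized to GAPDH, and compared with DMSO controls to give percent degradation, DC50 and Dmax.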

[3] = target: T1, KRas; assay: KRas degradation in NCI-H2030 cells by Western blot, normalized to GAPDH (data of Table 14); set-up: host or cells: NCI-H2030; details: for Dmax: NCI-H2030
How it was run: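 Readout: GAPDH-normalized KRas immunoblot signal, expressed as percent degradation versus 0.1% DMSO vehicle. Treatment: 0.3, 1, 3 μM after 24 h starvation; 24 h (VHL-based) or 72 h (others).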

C=CC(=O)N1CCN(c2nc(NCCC(=O)N(C)CCOCCOCCOCCNc3cccc4c3C(=O)N(C3CCC(=O)NC3=O)C4=O)nc3c(F)c(-c4cc(O)cc5ccccc45)c(Cl)cc23)CC1 (centres unmarked) [compound 3, 3-((4-(4-acryloylpiperazin-1-yl)-6-chloro-8-fluoro-7-(3-hydroxynaphthalen-1-yl)quinazolin-2-yl)amino)-N-(2-(2-(2-(2-((2-(2,6-dioxopiperidin-3-yl)-1,3-dioxoisoindolin-4-yl)amino)ethoxy)ethoxy)ethoxy)ethyl)-N-methylpropanamide]
H2030 Degradation at 0.3 uM [1]: C (C < 25) | H2030 Degradation at 1 uM [1]: B (25 ≤ B < 50) | H2030 Degradation at 3 uM [1]: B (25 ≤ B < 50)

C=CC(=O)N1CCN(c2nc(NCCC(=O)N(C)CCOCCOCCOCC(=O)N[C@H](C(=O)N3C[C@H](O)C[C@H]3C(=O)N[C@@H](C)c3ccc(-c4scnc4C)cc3)C(C)(C)C)nc3c(F)c(-c4cc(O)cc5ccccc45)c(Cl)cc23)CC1 [compound 4, (2S,4R)-1-((2S)-18-((4-(4-acryloylpiperazin-1-yl)-6-chloro-8-fluoro-7-(3-hydroxynaphthalen-1-yl)quinazolin-2-yl)amino)-2-(tert-butyl)-15-methyl-4,16-dioxo-6,9,12-trioxa-3,15-diazaoctadecanoyl)-4-hydroxy-N-((S)-1-(4-(4-methylthiazol-5-yl)phenyl)ethyl) pyrrolidine-2-carboxamide]
H2030 Degradation at 0.3 uM [1]: C (C < 25) | H2030 Degradation at 1 uM [1]: B (25 ≤ B < 50) | H2030 Degradation at 3 uM [1]: B (25 ≤ B < 50)

CCC(=O)N1CCN(c2nc(NCCC(=O)N(C)CCOCCOCCOCCNc3cccc4c3C(=O)N(C3CCC(=O)NC3=O)C4=O)nc3c(F)c(-c4cc(O)cc5ccccc45)c(Cl)cc23)CC1 (centres unmarked) [compound 8, 3-((6-chloro-8-fluoro-7-(3-hydroxynaphthalen-1-yl)-4-(4-propionylpiperazin-1-yl)quinazolin-2-yl)amino)-N-(2-(2-(2-(2-((2-(2,6-dioxopiperidin-3-yl)-1,3-dioxoisoindolin-4-yl)amino)ethoxy)ethoxy)ethoxy)ethyl)-N-methylpropanamide]
H2030 Degradation at 0.3 uM [1]: C (C < 25) | H2030 Degradation at 1 uM [1]: C (C < 25) | H2030 Degradation at 3 uM [1]: C (C < 25)

CCC(=O)N1CCN(c2nc(NCCC(=O)N(C)CCOCCOCCOCC(=O)N[C@H](C(=O)N3C[C@H](O)C[C@H]3C(=O)N[C@@H](C)c3ccc(-c4scnc4C)cc3)C(C)(C)C)nc3c(F)c(-c4cc(O)cc5ccccc45)c(Cl)cc23)CC1 [compound 9, (2S,4R)-1-((S)-2-(tert-butyl)-18-((6-chloro-8-fluoro-7-(3-hydroxynaphthalen-1-yl)-4-(4-propionylpiperazin-1-yl)-5H-312-quinazolin-2-yl)amino)-15-methyl-4,16-dioxo-6,9,12-trioxa-3,15-diazaoctadecanoyl)-4-hydroxy-N-((S)-1-(4-(4-methyl-312-thiazol-5-yl)phenyl)ethyl) pyrrolidine-2-carboxamide]
H2030 Degradation at 0.3 uM [1]: C (C < 25) | H2030 Degradation at 1 uM [1]: C (C < 25) | H2030 Degradation at 3 uM [1]: C (C < 25)

C=CC(=O)N1CCN(c2nc(O[C@H](C)CN3CCC(OCCOCCOCCOCCOCCOCC(=O)N[C@H](C(=O)N4C[C@H](O)C[C@H]4C(=O)N[C@@H](C)c4ccc(-c5scnc5C)cc4)C(C)(C)C)CC3)nc3c(F)c(-c4cc(O)cc5ccccc45)c(Cl)cc23)CC1 [compound 402, (2S,4R)-1-((2S)-20-((1-((2R)-2-((4-(4-acryloylpiperazin-1-yl)-6-chloro-8-fluoro-7-(3-hydroxynaphthalen-1-yl)quinazolin-2-yl)oxy)propyl)piperidin-4-yl)oxy)-2-(tert-butyl)-4-oxo-6,9,12,15,18-pentaoxa-3-azaicosanoyl)-4-hydroxy-N-((S)-1-(4-(4-methylthiazol-5-yl)phenyl)ethyl)pyrrolidine-2-carboxamide]
DC50 ([2]; SW1573 cells): ≥ 1 µM | Dmax ([2]; SW1573 cells): ≤ 35% | Percent Degradation at Indicated Concentration (μM) ([2]; SW1573 cells, 0.01 μM): C (Percent Degradation: C ≤ 35) | Percent Degradation at Indicated Concentration (μM) ([2]; SW1573 cells, 0.03 μM): C (Percent Degradation: C ≤ 35) | Percent Degradation at Indicated Concentration (μM) ([2]; SW1573 cells, 0.1 μM): C (Percent Degradation: C ≤ 35) | Percent Degradation at Indicated Concentration (μM) ([2]; SW1573 cells, 0.3 μM): C (Percent Degradation: C ≤ 35) | Percent Degradation at Indicated Concentration (μM) ([2]; SW1573 cells, 1 μM): C (Percent Degradation: C ≤ 35) | Percent Degradation at Indicated Concentration (μM) ([3]; H2030 cells, 0.3 μM): C (Percent Degradation: C ≤ 35) | Percent Degradation at Indicated Concentration (μM) ([3]; H2030 cells, 1 μM): C (Percent Degradation: C ≤ 35) | Percent Degradation at Indicated Concentration (μM) ([3]; H2030 cells, 3 μM): C (Percent Degradation: C ≤ 35) | Dmax ([3]; H2030 cells): ≤ 35%

C=CC(=O)N1CCN(c2nc(O[C@H](C)CN3CCC(OCCOCCOCCOCC(=O)N[C@H](C(=O)N4C[C@H](O)C[C@H]4C(=O)N[C@@H](C)c4ccc(-c5scnc5C)cc4)C(C)(C)C)CC3)nc3c(F)c(-c4cc(O)cc5ccccc45)c(Cl)cc23)CC1 [compound 400, (2S ,4R)-1-((2S)-14-((1-((2R)-2-((4-(4-acryloylpiperazin-1-yl)-6-chloro-8-fluoro-7-(3-hydroxynaphthalen-1-yl)quinazolin-2-yl)oxy)propyl)piperidin-4-yl)oxy)-2-(tert-butyl)-4-oxo-6,9,12-trioxa-3-azatetradecanoyl)-4-hydroxy-N-((S)-1-(4-(4-methylthiazo1-5-yl)phenyl)ethyl)pyrrolidine-2-carboxamide]
DC50 ([2]; SW1573 cells): ≥ 1 µM | Dmax ([2]; SW1573 cells): ≤ 35% | Percent Degradation at Indicated Concentration (μM) ([2]; SW1573 cells, 0.01 μM): C (Percent Degradation: C ≤ 35) | Percent Degradation at Indicated Concentration (μM) ([2]; SW1573 cells, 0.03 μM): C (Percent Degradation: C ≤ 35) | Percent Degradation at Indicated Concentration (μM) ([2]; SW1573 cells, 0.1 μM): C (Percent Degradation: C ≤ 35) | Percent Degradation at Indicated Concentration (μM) ([2]; SW1573 cells, 0.3 μM): C (Percent Degradation: C ≤ 35) | Percent Degradation at Indicated Concentration (μM) ([2]; SW1573 cells, 1 μM): C (Percent Degradation: C ≤ 35) | Percent Degradation at Indicated Concentration (μM) ([3]; H2030 cells, 0.3 μM): C (Percent Degradation: C ≤ 35) | Percent Degradation at Indicated Concentration (μM) ([3]; H2030 cells, 1 μM): C (Percent Degradation: C ≤ 35) | Percent Degradation at Indicated Concentration (μM) ([3]; H2030 cells, 3 μM): C (Percent Degradation: C ≤ 35) | Dmax ([3]; H2030 cells): ≤ 35%

C=CC(=O)N1CCN(c2nc(OCCN(C)CCOCCOCCOCCOCC(=O)N[C@H](C(=O)N3C[C@H](O)C[C@H]3C(=O)N[C@@H](C)c3ccc(-c4scnc4C)cc3)C(C)(C)C)nc3c(F)c(-c4cc(O)cc5ccccc45)c(Cl)cc23)CC1 [compound 473, (2S,4R)-1-((2S)-20-((4-(4-acryloylpiperazin-1-yl)-6-chloro-8-fluoro-7-(3-hydroxynaphthalen-1-yl)quinazolin-2-yl)oxy)-2-(tert-butyl)-18-methyl-4-oxo-6,9,12,15-tetraoxa-3,18-diazaicosanoyl)-4-hydroxy-N-((S)-1-(4-(4-methylthiazol-5-yl)phenyl)ethyl)pyrrolidine-2-carboxamide]
DC50 ([2]; SW1573): 0.1 to 1 µM | Dmax ([2]; SW1573): 35 to 70% | Percent Degradation at Indicated Concentration (μM) ([2]; SW1573, 0.03 μM): C (Percent Degradation: C ≤ 35) | Percent Degradation at Indicated Concentration (μM) ([2]; SW1573, 0.1 μM): C (Percent Degradation: C ≤ 35) | Percent Degradation at Indicated Concentration (μM) ([2]; SW1573, 0.3 μM): B (35 < B < 70) | Percent Degradation at Indicated Concentration (μM) ([2]; SW1573, 1 μM): B (35 < B < 70) | Percent Degradation at Indicated Concentration (μM) ([2]; SW1573, 3 μM): B (35 < B < 70) | Percent Degradation at Indicated Concentration (μM) ([2]; SW1573, 10 μM): B (35 < B < 70) | DC50 ([3]; H2030): 0.1 to 1 µM | Percent Degradation at Indicated Concentration (μM) ([3]; H2030, 0.03 μM): C (Percent Degradation: C ≤ 35) | Percent Degradation at Indicated Concentration (μM) ([3]; H2030, 0.1 μM): C (Percent Degradation: C ≤ 35) | Percent Degradation at Indicated Concentration (μM) ([3]; H2030, 0.3 μM): C (Percent Degradation: C ≤ 35) | Percent Degradation at Indicated Concentration (μM) ([3]; H2030, 1 μM): C (Percent Degradation: C ≤ 35) | Percent Degradation at Indicated Concentration (μM) ([3]; H2030, 3 μM): C (Percent Degradation: C ≤ 35) | Percent Degradation at Indicated Concentration (μM) ([3]; H2030, 10 μM): C (Percent Degradation: C ≤ 35) | Dmax [3]: ≤ 35%
